Each compound was assayed on SARS-CoV-2-S pseudotyped particles. Settings: Calu-3 cells.
Format: cell-based

Structure (SMILES) | Activity on viral entry in PP entry assay (in words)
CCOC(=O)c1ccc(OC(=O)CCCCCNC(=N)N)cc1 [NCGC00025297, Gabexate] | did not exhibit an activity
N=C(N)c1ccc2cc(OC(=O)c3ccc(N=C(N)N)cc3)ccc2c1 [NCGC00160398, Nafamostat] | high potency and efficacy
CN(C)C(=O)COC(=O)Cc1ccc(OC(=O)c2ccc(NC(=N)N)cc2)cc1 [NCGC00167526, Camostat] | high potency and efficacy
COC(=O)[C@H](Cc1cccc(C(=N)N)c1)[C@@H](C)NC(=O)c1ccc(-c2cc[n+]([O-])cc2)cc1 [NCGC00378763, Otamixaban] | efficient activity
C=Cc1cc(C(=O)Nc2ccc(C(=N)N)cc2)c(-c2ccc(C(=O)NCC3CC3)nc2C(=O)O)cc1OC [NCGC00522636, Avoralstat] | comparable inhibition activity to camostat

Source: publication PMC8043206 (ACS Pharmacology & Translational Science, 2021)
